Measured values reported in US7462600B2, “Macrolides” (Pfizer Inc, priority 2004, dated 2008).
Values after ≈ are worked out from the molar mass of the structure shown. Like-named read-outs stand apart in the source and are kept apart here.

What was measured:
Format in all cases: cell-based
[1] = tested on: Streptococcus pyogenes 1079; assay: MIC, microtiter broth dilution (NCCLS M100-S14), S. pyogenes 1079 (ermB)
Protocol: (§1) The assay described herein includes a panel of bacterial strains assembled to include a variety of target pathogenic species, including representatives of macrolide resistance mechanisms that have been characterized. In many cases, both the macrolide-susceptible parent strain and the macrolide-resistant strain derived from it are available to provide a more accurate assessment of the compound's ability to circumvent the resistance mechanism. The assay is performed in microtiter trays and interpreted according to Performance Standards for Antimicrobial Susceptibility Testing; 14th Informational Supplement (M100-S14), published by The National Committee for Clinical Laboratory Standards (NCCLS) guidelines; the MIC is used to compare strains. Compounds are initially dissolved in DMSO as 40 mg/ml stock solutions.

[2] = tested on: Haemophilus influenzae 1218; assay: MIC, microtiter broth dilution (NCCLS M100-S14), H. influenzae 1218 (susceptible)
Protocol: as §1

[3] = tested on: Streptococcus pneumoniae 1016; assay: MIC, microtiter broth dilution (NCCLS M100-S14), S. pneumoniae 1016 (susceptible)
Protocol: as §1

[4] = tested on: Streptococcus pneumoniae 1175; settings: microtiter broth dilution
Protocol: as §1

[5] = tested on: Streptococcus pneumoniae 1095; settings: microtiter broth dilution
Protocol: as §1

[6] = H. influenzae 1218 (susceptible)
[7] = S. pneumoniae 1016 (susceptible)

Compound	MIC S. pyogenes 1079 ([1]; Streptococcus pyogenes 1079) [µg/mL]	MIC H. influenzae 1218 ([2]; Haemophilus influenzae 1218) [µg/mL]	MIC S. pneumo. 1016 ([3]; Streptococcus pneumoniae 1016) [µg/mL]	MIC S. pneumo. 1175 ([4]; Streptococcus pneumoniae 1175) [µg/mL]	MIC S. pneumo. 1095 ([5]; Streptococcus pneumoniae 1095) [µg/mL]	MIC S. pyogenes 1079 ([1]; S. pyogenes 1079 (ermB)) [µg/mL]	MIC H. influenzae 1218 [2, 6] [µg/mL]	MIC S. pneumo. 1016 [3, 7] [µg/mL]	MIC S. pneumo. 1175 ([4]; S. pneumoniae 1175 (mefA)) [µg/mL]	MIC S. pneumo. 1095 ([5]; S. pneumoniae 1095 (ermB)) [µg/mL]
CCC1OC(=O)C(C)(F)C(=O)C(C)C(OC2OC(C)CC(N(C)C)C2O)C(C)(OC)CC(C)C(=O)C(C)C2N(C3CN(Cc4ccnc5ncccc45)C3)C(=O)OC12C (stereo not shown) [Example 1.33, 3-descladinosyl-11,12-dideoxy-2-fluoro-6-O-methyl-3-oxo-12,11-(oxycarbonyl-(1-((1,8-naphthyridin-4-yl)-methyl)-azetidin-3-yl)-imino)-erythromycin A]	0.25 (≈ 0.302 µM)	0.25 (≈ 0.302 µM)	<0.06	<0.06	<0.06					
CC[C@H]1OC(=O)[C@H](C)C(=O)[C@H](C)[C@@H](O[C@@H]2O[C@H](C)C[C@H](N(C)C)[C@H]2O)[C@](C)(OC)C[C@@H](C)C(=O)[C@H](C)[C@H]2N(C3CN(C(C)c4ccnc5ccccc45)C3)C(=O)O[C@]12C (stereo partly shown) [Example 1.62, 3-descladinosyl-11,12-dideoxy-6-O-methyl-3-oxo-12,11-(oxycarbonyl-(1-(1-(quinolin-4-yl)-ethyl)-azetidin-3-yl)-imino)-erythromycin A]	2 (≈ 2.43 µM)	0.5 (≈ 0.608 µM)	<0.06	<0.06	<0.06					
CCC1OC(=O)C(C)C(=O)C(C)C(OC2OC(C)CC(N(C)C)C2O)C(C)(OC)CC(C)C(=O)C(C)C2N(C3CN(C(C)c4ccnc5cccnc45)C3)C(=O)OC12C (stereo not drawn) [Example 1.37, 3-descladinosyl-11,12-dideoxy-6-O-methyl-3-oxo-12,11-(oxycarbonyl-(1-(1R-(1,5-naphthyridin-4-yl)-ethyl)-azetidin-3-yl)-imino)erythromycin A]	4 (≈ 4.85 µM)	1 (≈ 1.21 µM)	<0.06	0.25 (≈ 0.303 µM)	<0.06					
3-descladinosyl-11,12-dideoxy-6-O-methyl-3-oxo-12,11-(oxycarbonyl-(1-((1H-benzo[d]imidazol-4-yl)-methyl)-(R)-pyrrolidin-3-yl)-imino)-erythromycin A [Example 9.06]						4	0.25	<0.06	<0.06	<0.06
CCC1OC(=O)C(C)C(=O)C(C)C(OC2OC(C)CC(N(C)C)C2O)C(C)(OC)CC(C)C(=O)C(C)C2N(CC3CCN(Cc4ccc5cccc(O)c5n4)C3)C(=O)OC12C (stereo not shown) [13.04]						64 (≈ 75 µM)	1 (≈ 1.17 µM)	<0.06	0.25 (≈ 0.293 µM)	1 (≈ 1.17 µM)
CCC1OC(=O)C(C)C(=O)C(C)C(OC2OC(C)CC(N(C)C)C2O)C(C)(OC)CC(C)C(=O)C(C)C2N(CC3CCN(Cc4c[nH]c(-c5ccccc5)n4)C3)C(=O)OC12C (stereo not shown) [13.08]						64 (≈ 75.1 µM)	2 (≈ 2.35 µM)	<0.06	0.5 (≈ 0.587 µM)	4 (≈ 4.69 µM)
CCC1OC(=O)C(C)C(=O)C(C)C(OC2OC(C)CC(N(C)C)C2O)C(C)(OC)CC(C)C(=O)C(C)C2N(C3CN(S(=O)(=O)c4cccnc4)C3)C(=O)OC12C (stereo not shown) [Example 3.01, 3-descladinosyl-11,12-dideoxy-6-O-methyl-3-oxo-12,11-(oxycarbonyl-(1-(pyridine-3-sulfonyl)-azetidin-3-yl)-imino)-erythromycin A]	4 (≈ 4.94 µM)	0.25 (≈ 0.309 µM)	<0.06	<0.06	<0.06					
CCC1OC(=O)C(C)C(=O)C(C)C(OC2OC(C)CC(N(C)C)C2O)C(C)(OC)CC(C)C(=O)C(C)C2N(C3CN(Cc4cccc(C#N)c4)C3)C(=O)OC12C (stereo not shown) [Example 1.15, 3-cyanobenzyl]	>64.00	0.25 (≈ 0.319 µM)	<0.06	0.25 (≈ 0.319 µM)	<0.06					
